Measurements taken from US9951068B2 (Proximagen Limited, priority 2013, dated 2018).

Assays:
[1] = target: human ether a go-go related gene (hERG) K+ channel (Homo sapiens (Human), UniProt Q12809); experiment: hERG assay, IonWorks patch clamp electrophysiology; format: cell-based; settings: Chinese Hamster Lung cell line stably expressing hERG; max assay concentration 11 uM
Description: Compounds of the invention were tested for inhibition of the human ether a go-go related gene (hERG) K^+ channel using IonWorks patch clamp electrophysiology. 8 Point concentration-response curves were generated on two occasions using 3-fold serial dilutions from the maximum assay concentration (11 uM). Electrophysiological recordings were made from a Chinese Hamster Lung cell line stably expressing the full length hERG channel. Single cell ion currents were measured in the perforated patch clamp configuration (100 ug/mL amphoterocin) at room temperature using an IonWorks Quattro instrument. The internal solution contained 140 mM KCl, 1 mM MgCl2, 1 mM EGTA and 20 mM HEPES and was buffered to pH 7.3. The external solution contained 138 mM NaCl, 2.7 mM KCl, 0.9 mM CaCl2, 0.5 mM MgCl2, 8 mM Na2HPO4 and 1.5 mM KH2PO4, and was buffered to pH 7.3. […] This sequence was repeated 5 times at a frequency of 0.25 Hz. Currents were measured from the tail step at the 5th pulse, and referenced to the holding current. Compounds were incubated for 6-7 min prior to a second measurement of the hERG signal using an identical pulse train. […] A control compound (quinidine) was used (see Table 20 below).

[2] = target: purified recombinantly expressed human SSAO (Homo sapiens (Human), UniProt Q16853); experiment: SSAO enzyme inhibition assay (HRP-coupled hydrogen peroxide detection or 14C-benzaldehyde detection, benzylamine substrate); format: biochemical; settings: SSAO inhibitory activity, human recombinant SSAO, RT
purified recombinantly expressed human SSAO, sequence (Q16853 29-763): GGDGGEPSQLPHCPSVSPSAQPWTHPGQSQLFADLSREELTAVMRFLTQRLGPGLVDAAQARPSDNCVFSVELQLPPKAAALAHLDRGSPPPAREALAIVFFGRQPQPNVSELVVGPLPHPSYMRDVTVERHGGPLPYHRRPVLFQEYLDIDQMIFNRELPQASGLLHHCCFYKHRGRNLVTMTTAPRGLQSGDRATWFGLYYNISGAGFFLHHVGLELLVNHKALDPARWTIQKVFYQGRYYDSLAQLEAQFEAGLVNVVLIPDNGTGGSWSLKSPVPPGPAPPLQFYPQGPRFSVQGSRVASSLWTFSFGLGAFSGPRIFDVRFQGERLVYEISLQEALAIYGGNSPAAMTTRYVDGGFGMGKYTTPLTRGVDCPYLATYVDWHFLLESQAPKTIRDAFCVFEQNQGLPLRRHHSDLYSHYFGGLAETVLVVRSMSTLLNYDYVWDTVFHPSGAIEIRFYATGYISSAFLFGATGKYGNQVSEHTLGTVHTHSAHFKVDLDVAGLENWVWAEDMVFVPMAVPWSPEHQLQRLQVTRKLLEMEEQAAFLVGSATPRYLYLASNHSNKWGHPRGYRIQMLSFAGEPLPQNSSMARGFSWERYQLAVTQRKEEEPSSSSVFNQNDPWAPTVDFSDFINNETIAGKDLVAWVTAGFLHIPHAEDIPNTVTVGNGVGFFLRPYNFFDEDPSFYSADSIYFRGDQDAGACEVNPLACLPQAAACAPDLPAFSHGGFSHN
Procedure, shortened: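 Human recombinant SSAO pre-incubated ~15 min with compound, room temperature. Radiometric format: 10 ug/ml enzyme, 40 uM 14C-benzylamine, 1 h, in PBS. IC50 by four-parameter fit.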

human ether a go-go related gene (hERG) K+ channel, sequence (Q12809 whole entry): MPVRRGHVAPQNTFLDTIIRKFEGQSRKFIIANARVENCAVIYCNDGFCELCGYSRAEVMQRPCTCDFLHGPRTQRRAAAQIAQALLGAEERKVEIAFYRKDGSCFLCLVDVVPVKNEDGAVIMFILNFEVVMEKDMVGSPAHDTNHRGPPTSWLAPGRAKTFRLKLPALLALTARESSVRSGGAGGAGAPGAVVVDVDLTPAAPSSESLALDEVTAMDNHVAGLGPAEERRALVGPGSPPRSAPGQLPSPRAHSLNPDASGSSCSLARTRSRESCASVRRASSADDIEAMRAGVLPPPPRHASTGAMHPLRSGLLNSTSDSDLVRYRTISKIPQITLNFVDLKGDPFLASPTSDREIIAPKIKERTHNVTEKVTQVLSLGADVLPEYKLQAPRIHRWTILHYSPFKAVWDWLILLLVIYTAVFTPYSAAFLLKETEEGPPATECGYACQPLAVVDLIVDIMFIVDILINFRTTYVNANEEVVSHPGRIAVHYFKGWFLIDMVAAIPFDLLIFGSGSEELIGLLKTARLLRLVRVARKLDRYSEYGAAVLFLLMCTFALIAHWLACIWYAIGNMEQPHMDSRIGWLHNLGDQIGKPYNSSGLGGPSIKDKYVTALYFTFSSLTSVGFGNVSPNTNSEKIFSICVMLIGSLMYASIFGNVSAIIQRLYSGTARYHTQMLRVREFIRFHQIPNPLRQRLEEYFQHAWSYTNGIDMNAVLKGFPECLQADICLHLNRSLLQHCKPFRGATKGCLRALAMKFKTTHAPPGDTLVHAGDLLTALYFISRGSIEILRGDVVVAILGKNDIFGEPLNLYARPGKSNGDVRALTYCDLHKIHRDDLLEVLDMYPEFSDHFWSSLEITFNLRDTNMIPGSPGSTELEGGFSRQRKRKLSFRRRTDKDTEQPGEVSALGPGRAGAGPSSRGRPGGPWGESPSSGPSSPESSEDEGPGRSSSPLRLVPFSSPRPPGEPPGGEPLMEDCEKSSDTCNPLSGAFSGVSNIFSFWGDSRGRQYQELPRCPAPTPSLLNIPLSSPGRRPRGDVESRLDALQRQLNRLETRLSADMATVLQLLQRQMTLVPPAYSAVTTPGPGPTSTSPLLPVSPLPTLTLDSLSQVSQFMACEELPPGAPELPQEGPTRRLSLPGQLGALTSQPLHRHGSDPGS

Q: What does the source list for Fc1ccc(-n2c(-c3cnc(N4CCOCC4)nc3)nc3ccncc32)cc1 [Example 52, 4-{5-[3-(4-Fluorophenyl)-3H-imidazo[4,5-c]pyridin-2-yl]pyrimidin-2-yl}morpholine]?
A: IC50 [1]: > 10 µM; IC50 [2]: < 0.05 µM

Q: How did the IC50 [1] turn out when C[C@@H]1CN(c2ncc(-c3nc4ccncc4n3-c3ccc(F)cc3)cn2)C[C@H](C)O1 [Example 23, (2R,6S)-4-{5-[3-(4-Fluorophenyl)-3H-imidazo[4,5-c]pyridin-2-yl]pyrimidin-2-yl}-2,6-dimethylmorpholine] was run?
A: > 10 µM

Q: What about the IC50 [2] of the same molecule?
A: < 0.05 µM

Q: For Clc1ccc(-n2c(-c3ccc(N4CCOCC4)nc3)nc3ccncc32)nc1 [Example 81, 4-{5-[3-(5-Chloropyridin-2-yl)-3H-imidazo[4,5-c]pyridin-2-yl]pyridin-2-yl}morpholine], which IC50 [1] is on record?
A: > 10 µM

Q: What about the IC50 [2] of the same molecule?
A: < 0.05 µM

Q: Which results are given for Fc1ccc(-n2c(-c3cnc(N4CCOCC4)nc3)nc3ccncc32)c(F)c1 [Example 78, 4-{5-[3-(2,4-Difluorophenyl)-3H-imidazo[4,5-c]pyridin-2-yl]pyrimidin-2-yl}morpholine]?
A: IC50 [1]: > 10 µM; IC50 [2]: < 0.05 µM

Q: For NC(=O)N1CCN(c2ccc(-c3nc4ccncc4n3-c3ccc(F)cc3)cn2)CC1 [Example 92, 4-{5-[3-(4-Fluorophenyl)-3H-imidazo[4,5-c]pyridin-2-yl]pyridin-2-yl}piperazine-1-carboxamide], which IC50 [1] is on record?
A: > 10 µM

Q: And the IC50 [2]?
A: < 0.05 µM

Q: Which IC50 [1] does the source give for Clc1ccc(-n2c(-c3cnc(NC4CCOCC4)nc3)nc3ccncc32)cc1 [Example 11, 5-[3-(4-Chlorophenyl)-3H-imidazo[4,5-c]pyridin-2-yl]-N-(oxan-4-yl)pyrimidin-2-amine; bis(trifluoroacetic acid)] here?
A: > 10 µM

Q: And the IC50 [2]?
A: < 0.05 µM

Q: Which IC50 [1] does the source give for CC(=O)N1CCN(c2ccc(-c3nc4ccncc4n3-c3ccc(F)cc3)cn2)CC1 [Example 86, 1-(4-{5-[3-(4-Fluorophenyl)-3H-imidazo[4,5-c]pyridin-2-yl]pyridin-2-yl}piperazin-1-yl)ethan-1-one] here?
A: > 10 µM

Q: What about the IC50 [2] of the same molecule?
A: < 0.05 µM

Q: With CC(=O)NC1CCN(c2ccc(-c3nc4ccncc4n3-c3ccc(Cl)cc3)cn2)CC1 [Example 85, N-(1-{5-[3-(4-Chlorophenyl)-3H-imidazo[4,5-c]pyridin-2-yl]pyridin-2-yl}piperidin-4-yl)acetamide] as the molecule, how does the IC50 [1] read?
A: > 10 µM

Q: And the IC50 [2]?
A: < 0.05 µM

Q: Clc1ccc(-n2c(-c3cnc(N4CCOCC4)nc3)nc3ccncc32)nc1 [Example 75, 4-{5-[3-(5-Chloropyridin-2-yl)-3H-imidazo[4,5-c]pyridin-2-yl]pyrimidin-2-yl}morpholine; tris(trifluoroacetic acid)] was tested. Which IC50 [1] did it give?
A: > 10 µM

Q: What about the IC50 [2] of the same molecule?
A: < 0.05 µM

Q: With Cc1ccc(-n2c(-c3ccc(N4CCOCC4)nc3)nc3ccncc32)nc1 [Example 82, 4-{5-[3-(5-Methylpyridin-2-yl)-3H-imidazo[4,5-c]pyridin-2-yl]pyridin-2-yl}morpholine] as the molecule, how does the IC50 [1] read?
A: > 10 µM

Q: What about the IC50 [2] of the same molecule?
A: < 0.05 µM

Q: For Cc1cc(N2CCOCC2)ncc1-c1nc2ccncc2n1-c1ccc(F)cc1 [Example 21, 4-{5-[3-(4-Fluorophenyl)-3H-imidazo[4,5-c]pyridin-2-yl]-4-methylpyridin-2-yl}morpholine], which IC50 [1] is on record?
A: > 10 µM

Q: And the IC50 [2]?
A: < 0.05 µM

Q: Which IC50 [1] does the source give for Clc1ccc(-n2c(-c3ccc(N4CCNCC4)nc3)nc3ccncc32)cc1 [Example 50, 1-{5-[3-(4-Chlorophenyl)-3H-imidazo[4,5-c]pyridin-2-yl]pyridin-2-yl}piperazine] here?
A: > 10 µM

Q: And the IC50 [2]?
A: < 0.05 µM

Q: Fc1ccc(-n2c(-c3cnc(N4CCCC4)nc3)nc3ccncc32)cc1 [Example 69, 5-[3-(4-Fluorophenyl)-3H-imidazo[4,5-c]pyridin-2-yl]-2-(pyrrolidin-1-yl)pyrimidine] was tested. Which IC50 [1] did it give?
A: > 10 µM

Q: What about the IC50 [2] of the same molecule?
A: < 0.05 µM

Q: Which results are given for CC1CN(c2ccc(-c3nc4ccncc4n3-c3ccc(F)cc3)cn2)CCO1 (stereo not drawn) [Example 70, 4-{5-[3-(4-Fluorophenyl)-3H-imidazo[4,5-c]pyridin-2-yl]pyridin-2-yl}-2-methylmorpholine]?
A: IC50 [1]: > 10 µM; IC50 [2]: < 0.05 µM

Q: With Cn1cncc1-c1cc2ccncc2n1-c1ccc(Cl)cc1 [Example 136, 5-[1-(4-Chlorophenyl)-1H-pyrrolo[2,3-c]pyridin-2-yl]-1-methyl-1H-im idazole] as the molecule, how does the IC50 [1] read?
A: 1 to 10 µM

Q: What about the IC50 [2] of the same molecule?
A: < 0.05 µM

Q: How did the IC50 [1] turn out when CC1(C)CN(c2ncc(-c3nc4ccncc4n3-c3ccc(F)cc3)cn2)CCO1 [Example 24, 4-{5-[3-(4-Fluorophenyl)-3H-imidazo[4,5-c]pyridin-2-yl]pyrimidin-2-yl}-2,2-dimethylmorpholine] was run?
A: > 10 µM

Q: And the IC50 [2]?
A: < 0.05 µM

Q: Which IC50 [1] does the source give for CN1CCN(Cc2ccc(-c3nc4ccncc4n3-c3ccc(Cl)cc3)cc2)CC1 [Example 46, 1-({4-[3-(4-Chlorophenyl)-3H-imidazo[4,5-c]pyridin-2-yl]phenyl}methyl)-4-methylpiperazine; formic acid] here?
A: > 10 µM

Q: What about the IC50 [2] of the same molecule?
A: < 0.05 µM

Q: How did the IC50 [1] turn out when O=C1CN(c2ncc(-c3cc4ccncc4n3-c3ccc(Cl)cc3)cn2)CCN1 [Example 128, 4-{5-[1-(4-Chlorophenyl)-1H-pyrrolo[2,3-c]pyridin-2-yl]pyrimidin-2-yl}piperazin-2-one] was run?
A: > 10 µM

Q: What about the IC50 [2] of the same molecule?
A: < 0.05 µM
